Among the data in PubChem BioAssay (NCI) are TGI values, retold here.

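The compound was tested at five concentrations on cells cultured in 96-well plates, with a 48-hour exposure period. Definition used: TGI = concentration required for complete inhibition of growth.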

Test systems include ACHN renal; CCRF-CEM leukemia; K-562 leukemia; MALME-3M melanoma; MDA-MB-231 breast; NCI/ADR-RES ovarian; SR leukemia; T-47D breast; HOP-92 NSCLC; NCI-H522 lung.
Common to all, as to experiment: inhibition of tumour cell growth, NCI panel, 48 h

Consider `O=C1CC(C(CC(=O)c2ccccc2)c2ccccc2)C(=O)c2ccccc2N1` (stereo unspecified), for which the TGI with ACHN renal is above 100 µM; in the experiment with CCRF-CEM leukemia, above 100 µM; in the experiment with K-562 leukemia it was above 100 µM; in the experiment with MALME-3M melanoma it was above 100 µM; with MDA-MB-231 breast, above 100 µM; with NCI/ADR-RES ovarian, 75.5 µM. Further, the TGI with SR leukemia is above 100 µM; with T-47D breast, 64.4 µM.
As to `CCN(CC)CCCNC(=O)c1cc2cc(NC(=O)c3cc4cc([N+](=O)[O-])ccc4[nH]3)ccc2[nH]1`, the TGI in the experiment on ACHN renal, with HOP-92 NSCLC, in the experiment with K-562 leukemia, in the experiment with MDA-MB-231 breast, in the experiment with NCI/ADR-RES ovarian and with SR leukemia was above 100 µM throughout. Also, the TGI in the experiment with T-47D breast is above 100 µM.
Regarding `COC(=O)[C@@](C)(COC(=O)C(C)(C)C)NC(=O)OC(C)(C)C`, the TGI with ACHN renal, with CCRF-CEM leukemia, in the experiment with K-562 leukemia, in the experiment on MALME-3M melanoma, in the experiment with MDA-MB-231 breast and in the experiment on NCI-H522 lung was above 100 µM throughout. In addition, the TGI in the experiment on NCI/ADR-RES ovarian, with SR leukemia and in the experiment with T-47D breast was above 100 µM in each case.
With `C[N+](C)(C)C=Nc1cccc2c1CCCC2`, the TGI in the experiment with ACHN renal, in the experiment on CCRF-CEM leukemia, with HOP-92 NSCLC, with K-562 leukemia, with MALME-3M melanoma and with MDA-MB-231 breast was above 100 µM each time. Further, the TGI in the experiment on NCI/ADR-RES ovarian, with SR leukemia and in the experiment on T-47D breast was above 100 µM each time.
`CCOC(=O)NNC(=O)NCc1ccccc1CNC(=O)NNC(=O)OCC`: the TGI with CCRF-CEM leukemia, with K-562 leukemia, in the experiment with MALME-3M melanoma, in the experiment on MDA-MB-231 breast, with NCI-H522 lung and in the experiment with NCI/ADR-RES ovarian was above 100 µM throughout. The TGI in the experiment with SR leukemia and with T-47D breast was above 100 µM each time.
With `Cc1nc2n(c1/C=C1/C(=O)Nc3ccccc31)CCS2`, the TGI with ACHN renal, in the experiment with CCRF-CEM leukemia, in the experiment with HOP-92 NSCLC, in the experiment with K-562 leukemia, with MALME-3M melanoma and in the experiment with MDA-MB-231 breast was above 100 µM each time. Moreover, the TGI in the experiment with NCI-H522 lung, with NCI/ADR-RES ovarian and with T-47D breast was above 100 µM in each case.
For the compound `CN1CN(c2ccccc2)C2(CCN(CCCCCCF)CC2)C1=O`, the TGI in the experiment with ACHN renal, with CCRF-CEM leukemia, in the experiment with K-562 leukemia, in the experiment on MALME-3M melanoma, in the experiment with MDA-MB-231 breast and with NCI-H522 lung was above 100 µM in each case. The TGI in the experiment with NCI/ADR-RES ovarian was 40.3 µM; with SR leukemia it was above 100 µM; with T-47D breast it was above 100 µM.
`O=C(O)CC[P+](c1ccccc1)(c1ccccc1)c1ccccc1`: the TGI with ACHN renal, in the experiment on CCRF-CEM leukemia, with K-562 leukemia, with MALME-3M melanoma, in the experiment on MDA-MB-231 breast and with NCI-H522 lung was above 100 µM each time. Besides, the TGI in the experiment with NCI/ADR-RES ovarian, in the experiment on SR leukemia and in the experiment with T-47D breast was above 100 µM in each case.
With `COCC1OC(S(=O)(=O)c2ccccc2)C(O)C(OC)C1OC` (stereo unspecified), the TGI with ACHN renal, in the experiment with CCRF-CEM leukemia, in the experiment with K-562 leukemia, with MALME-3M melanoma, in the experiment with MDA-MB-231 breast and in the experiment with NCI-H522 lung was above 100 µM throughout. Moreover, the TGI with NCI/ADR-RES ovarian, in the experiment with SR leukemia and in the experiment with T-47D breast was above 100 µM in each case.
`CS[C@]12[C@@H]3C(=O)N(C)C(=O)[C@@H]3[C@](C)(C(=O)N1C)C(=O)N2c1ccccc1`: the TGI in the experiment with ACHN renal, with CCRF-CEM leukemia, with HOP-92 NSCLC, in the experiment on MALME-3M melanoma, in the experiment with MDA-MB-231 breast and in the experiment on NCI-H522 lung was above 100 µM in each case. Further, the TGI in the experiment on NCI/ADR-RES ovarian and with T-47D breast was above 100 µM each time.
Take `C=C[C@@]1(O)CCCC[C@@H]1CC(Sc1ccccc1)Sc1ccccc1`: the TGI in the experiment with ACHN renal is above 100 µM; with CCRF-CEM leukemia, above 100 µM; in the experiment on K-562 leukemia, above 100 µM; with MALME-3M melanoma, 28 µM; in the experiment on MDA-MB-231 breast, 33.2 µM; in the experiment on NCI-H522 lung it was 26.8 µM. For the same compound, the TGI with NCI/ADR-RES ovarian was 39.7 µM; in the experiment on SR leukemia it was above 100 µM; in the experiment with T-47D breast it was 27.8 µM.
`Cc1ccnc2nc(N)ccc12`: the TGI in the experiment with ACHN renal, with CCRF-CEM leukemia, in the experiment with K-562 leukemia, in the experiment with MALME-3M melanoma, in the experiment with MDA-MB-231 breast and with NCI-H522 lung was above 100 µM each time. Besides, the TGI with NCI/ADR-RES ovarian, in the experiment with SR leukemia and with T-47D breast was above 100 µM throughout.
`CC12CCCCC1=[N+]([O-])C(C)(C)N2O` (stereo unspecified): the TGI with ACHN renal, in the experiment with CCRF-CEM leukemia, in the experiment with HOP-92 NSCLC, in the experiment with MALME-3M melanoma, with MDA-MB-231 breast and in the experiment with NCI/ADR-RES ovarian was above 100 µM throughout. Moreover, the TGI with SR leukemia and in the experiment with T-47D breast was above 100 µM throughout.
